From ChEMBL document CHEMBL4818987, “Recent advances of podophyllotoxin/epipodophyllotoxin hybrids in anticancer activity, mode of action, and structure-activity relationship: An update (2010-2020)” (Eur J Med Chem, 2020)

Key:
[1] = test system: A549; experiment: Potency index, ratio of etoposide IC50 to test compound IC50 for antiproliferative activity against human A549 cells; type: functional
[2] = test system: HepG2; experiment: Potency index, ratio of etoposide IC50 to test compound IC50 for antiproliferative activity against human HepG2 cells; type: functional
[3] = test system: A549; experiment: Antiproliferative activity against human A549 cells incubated for 3 days by MTT assay; type: functional, cell-based; conditions: A549, 72 h
[4] = test system: HCT-116; experiment: Potency index, ratio of etoposide IC50 to test compound IC50 for antiproliferative activity against human HCT116 cells; type: functional
[5] = test system: HepG2; experiment: Antiproliferative activity against human HepG2 cells incubated for 3 days by MTT assay; type: functional, cell-based; conditions: HepG2, 72 h
[6] = test system: HCT-116; experiment: Antiproliferative activity against human HCT116 cells incubated for 3 days by MTT assay; type: functional, cell-based; conditions: HCT-116, 72 h
[7] = test system: A549; experiment: Antiproliferative activity against human A549 cells incubated for 48 hrs by MTT assay; type: functional, cell-based; conditions: A549, 48 h
[8] = test system: SW480; experiment: Antiproliferative activity against human SW480 cells incubated for 48 hrs by MTT assay; type: functional, cell-based; conditions: SW480, 48 h
[9] = Selectivity index, ratio of CC50 for human BEAS2B cells to IC50 for human SW480 cells; type: toxicity; conditions: read-out: Ratio CC50/IC50
[10] = Selectivity index, ratio of CC50 for human BEAS2B cells to IC50 for human HL60 cells; type: toxicity; conditions: read-out: Ratio CC50/IC50
[11] = Selectivity index, ratio of CC50 for human BEAS2B cells to IC50 for human SMMC7721 cells; type: toxicity; conditions: read-out: Ratio CC50/IC50
[12] = Cytotoxicity against human BEAS2B cells; type: cell-based; conditions: BEAS-2B cells
[13] = Selectivity index, ratio of CC50 for human BEAS2B cells to IC50 for human A549 cells; type: toxicity; conditions: read-out: Ratio CC50/IC50
[14] = test system: MCF7; experiment: Antiproliferative activity against human MCF7 cells incubated for 48 hrs by MTT assay; type: functional, cell-based; conditions: MCF7, 48 h
[15] = test system: SMMC-7721; experiment: Antiproliferative activity against human SMMC-7721 cells incubated for 48 hrs by MTT assay; type: functional, cell-based; conditions: SMMC-7721, 48 h
[16] = Selectivity index, ratio of CC50 for human BEAS2B cells to IC50 for human MCF7 cells; type: toxicity; conditions: read-out: Ratio CC50/IC50
[17] = test system: HL-60; experiment: Antiproliferative activity against human HL-60 cells incubated for 48 hrs by MTT assay; type: functional, cell-based; conditions: HL-60, 48 h

Structure (SMILES)	Ratio IC50 [1]	Ratio IC50 [2]	IC50 [3]	Ratio IC50 [4]	IC50 [5]	IC50 [6]	IC50 [7]	IC50 [8]	selectivity ratio [9]	selectivity ratio [10]	selectivity ratio [11]	CC50 [12]	selectivity ratio [13]	IC50 [14]	IC50 [15]	selectivity ratio [16]	IC50 [17]
COc1cc([C@@H]2c3cc4c(cc3[C@@H](NC(=S)NC(=O)c3ccccc3)[C@H]3COC(=O)[C@H]23)OCO4)cc(OC)c1OC	49	49	100 nM	49	100 nM	100 nM											
CCCC(=O)OC[C@H]1O[C@@H](OC(COCc2cn([C@@H]3c4cc5c(cc4[C@@H](c4cc(OC)c(OC)c(OC)c4)[C@H]4C(=O)OC[C@@H]43)OCO5)nn2)COCc2cn([C@@H]3c4cc5c(cc4[C@@H](c4cc(OC)c(OC)c(OC)c4)[C@H]4C(=O)OC[C@@H]43)OCO5)nn2)[C@H](OC(=O)CCC)[C@@H](OC(=O)CCC)[C@@H]1OC(=O)CCC (some centres not stated)							430 nM	430 nM	4.3	4.3	4.3	15400 nM	4.3	430 nM	430 nM	4.3	430 nM
